Data on seven compounds can be found in publication PMC6949950, “Screening Mold Colonies by Using Two Toxicity Assays Revealed Indoor Strains of Aspergillus calidoustus Producing Ophiobolins G and K” (Toxins, 2019).

The test system of experiment [1] is porcine kidney PK-15 cells. Description: cells. The format is cell-based. To be noted: for EC50: Sus scrofa, read-out: EC50 ICP 2 days.
In experiment [2] the test system is boar spermatozoa. As to the kind of experiment: cells. The experiment is classed as cell-based. To be noted: for EC50: Spermatozoa.
Experiment [3] has as its system boar spermatozoa. Description: cells. The format is cell-based. The following applies: for EC50: Spermatozoa, 24 h, read-out: EC50 SMID 1 day.
Another experiment relates to M. circinelloides. Also noted: method as in doi:10.1211/146080800128736312, PMID 21054501, PMID 22130129, PMID 23538442. To be noted: cited from earlier work.
The mark [4] stands for this setting: PK-15 cells, exposure 2 days, SD between three measurements < ± 35%.
The mark [5] stands for this setting: boar sperm, exposure 0.5–1 h, twofold dilutions, three measurements within one dilution step.
Where [6] appears, read: boar sperm, exposure 1–2 days, twofold dilutions.
Where [7] appears, read: boar sperm, exposure 1 day, SD between three measurements < ± 35%.
[8] abbreviates: boar sperm, exposure 0.5–1 h, twofold dilutions, three measurements within one dilution step, read-out: EC50 BSMI 0.5–1 h.
Where [9] appears, read: boar sperm, exposure 1–2 days, twofold dilutions, read-out: EC50 BSMI 1–2 days.
Setting [10] is: PK-15, 48 h, PK-15 cells, exposure 2 days, SD between three measurements < ± 35%.

Values after ≈ are worked out from the molar mass of the structure shown. Where two headings read alike, the source gives them in different places.

In general, EC50 refers to the concentration needed to bring the measured effect to its halfway point.

Take Alamethicin: in experiment [1] (setting [4]), the “EC50 ICP 2 days” value was 8 µg/mL. In the experiment on boar spermatozoa [2] (setting [5]), the “EC50 BSMI 0.5–1 h” value is 5 µg/mL. In addition, the “EC50 BSMI 1–2 days” value in the experiment with boar spermatozoa [2] (setting [6]) amounted to 0.2 µg/mL. The “EC50 SMID 1 day” value in the experiment with boar spermatozoa [3] (setting [7]) came to 0.2 µg/mL.
Turning to `CC(C)=C[C@H]1C[C@H](C)[C@]2(CC[C@]3(C)C[C@H]4[C@H](C(=O)C[C@@]4(C)O)/C(C=O)=C\C[C@H]32)O1` [Ophiobolin A], the “treatment concentration at which apoptosis-like cell death process was observed” value in the experiment with M. circinelloides is 1.6 µg/mL. Also, the “EC50 ICP 2 days” value in experiment [1] (setting [4]) was determined as 0.2 µg/mL (≈ 0.499 µM). The values for the EC50 in the experiment with boar spermatozoa [2] (setting [8]), with boar spermatozoa [2] (setting [9]) and in the experiment on boar spermatozoa [3] (setting [7]) were 2.5 µg/mL (≈ 6.24 µM), 0.25 µg/mL (≈ 0.624 µM) and 2 µg/mL (≈ 4.99 µM), respectively.
On to `CC1(C)C=Cc2c(ccc3c2[N+]([O-])=C2C(C)(C)[C@@H]4CC56CCCN5C(=O)[C@]4(NC6=O)[C@H]4N5C(=O)[C@@]67CCCN6C(=O)[C@@]56[C@H](c5c(n(O)c8c9c(ccc58)OC(C)(C)C=C9)C(C)(C)[C@@H]6C7)[C@]234)O1` [Stephacidin B], for which, in experiment [1] (setting [4]), the “EC50 ICP 2 days” value turned out to be 0.2 µg/mL (≈ 0.224 µM). Besides, the “EC50 BSMI 0.5–1 h” value in the experiment with boar spermatozoa [2] (setting [5]) worked out at 0.5 µg/mL (≈ 0.561 µM). In the experiment with boar spermatozoa [2] (setting [6]), the “EC50 BSMI 1–2 days” value stood at 0.2 µg/mL (≈ 0.224 µM). Moreover, in the experiment with boar spermatozoa [3] (setting [7]), the “EC50 SMID 1 day” value was over 2 µg/mL.
As for `Oc1cc(Cl)ccc1Oc1ccc(Cl)cc1Cl` [triclosan], the EC50 in experiment [1] (setting [10]) came to 9.4 µg/mL (≈ 32.5 µM); in the experiment with boar spermatozoa [3] (setting [7]) it was 2 µg/mL (≈ 6.91 µM).
Turning to `C[C@@H]1Cc2c(Cl)cc(C(=O)N[C@@H](Cc3ccccc3)C(=O)O)c(O)c2C(=O)O1` [Ochratoxin A], the EC50 in experiment [1] (48 h, PK-15 cells, exposure 2 days, SD between three measurements < ± 35%) is over 50 µg/mL; with boar spermatozoa [2] (setting [8]) it was over 100 µg/mL; with boar spermatozoa [2] (setting [9]), over 50 µg/mL; with boar spermatozoa [3] (setting [7]) it was over 50 µg/mL.
Regarding `COc1cc2c(c3oc4cccc(O)c4c(=O)c13)[C@@H]1C=CO[C@@H]1O2` [Sterigmatocystin], in experiment [1], the “EC50 ICP 2 days” value is 0.25 µg/mL (≈ 0.771 µM) and the “toxicity to proliferating PK-15 cells in the ICP assay” value is “highly toxic”. Besides, in the experiment on boar spermatozoa [2], the “EC50 BSMI 0.5–1 h” value was over 100 µg/mL and the “EC50 BSMI 1–2 days” value was over 20 µg/mL. In the experiment on boar spermatozoa [3], the “EC50 SMID 1 day” value is over 20 µg/mL.
`CC1(C)C=Cc2c(ccc3c2[N+]([O-])=C2C3=C[C@@]34NC(=O)[C@]5(CCCN5C3=O)C[C@H]4C2(C)C)O1` [Avrainvillamide]: the EC50 was 0.3 µg/mL (≈ 0.673 µM) in experiment [1] (setting [10]), 0.6 µg/mL (≈ 1.35 µM) in the experiment on boar spermatozoa [2] (setting [8]), 0.3 µg/mL (≈ 0.673 µM) with boar spermatozoa [2] (setting [9]) and over 2 µg/mL in the experiment on boar spermatozoa [3] (setting [7]).
